{
  "source": "paper PMC7524040",
  "about": "(Biochemistry, 2020)",
  "origin": "cited, not measured here",
  "key": {"[1]": {"tested_on": "cardiac heteromeric Kir3.1/3.4 channel", "conditions": "heteromeric Kir3.1/Kir3.4 channels"}, "[2]": {"tested_on": "native IKACh channel"}},
  "note": "pIC50: −log10 of the molar value. Ends that are not written are not given here.",
  "data": [
    {"substance": "Tertiapin (ALCNCNRIIIPHMCWKKCGKK; not fully specified (C-terminus, bridges); ends and bridges not checked; UniProt P56587 1-21, looked up) [TPN]", "values": [
      {"measurement": "decrease in the inhibitory action after air oxidation of M13", "setting": "[1]", "value": "4- to 5 fold"},
      {"measurement": "pIC50", "setting": "[2]", "value": 7.52}
    ]}
  ]
}
